# Patent US20260028354A1, “TETRAHYDRONAPHTHALENE DERIVATIVES AS ESTROGEN RECEPTOR DEGRADERS” (REGENT OF THE UNIVERSITY OF MICHIGAN, priority 2022, published 2026)
# Assay: Western blot analysis for "B" compounds
# Format: cell-based
# Conditions: read-out: Traditional Western Degradation Potency (DC50)
# Outline: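 Target protein levels given as relative mean band intensity over GAPDH from scanned immunoblots. Lysates of treated cells in RIPA buffer, equalized by BCA, separated on 10% gels and transferred to PVDF.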
row,SMILES,DC50 [nM]
1,"O=C1CCC(N2C(=O)c3cc4c(cc3C2=O)CCN(C(=O)CN2CCC3(CC2)CCN(c2ccc([C@@H]5c6ccc(O)cc6CC[C@@H]5c5ccccc5)cc2)CC3)CC4)C(=O)N1 (stereo partly drawn) [Compound B40, 2-(2,6-dioxopiperidin-3-yl)-7-(2-(9-(4-((1R,2S)-6-hydroxy-2-phenyl-1,2,3,4-tetrahydronaphthalen-1-yl)phenyl)-3,9-diazaspiro[5.5]undecan-3-yl)acetyl)-6,7,8,9-tetrahydroazepino[4,5-f]isoindole-1,3(2H,5H)-dione]",> 100
2,"O=C1CCC(N2C(=O)c3cc4c(cc3C2=O)CN(CC(=O)N2CC(n3cc(-c5ccc([C@@H]6c7ccc(O)cc7CC[C@@H]6c6ccccc6)cc5)cn3)C2)C4)C(=O)N1 (stereo partly drawn) [Compound B59, 2-(2,6-dioxopiperidin-3-yl)-6-(2-(3-(4-(4-((1R,2S)-6-hydroxy-2-phenyl-1,2,3,4-tetrahydronaphthalen-1-yl)phenyl)-1H-pyrazol-1-yl)azetidin-1-yl)-2-oxoethyl)-6,7-dihydropyrrolo[3,4-f]isoindole-1,3(2H,5H)-dione]",> 100
3,"O=C1CCC(N2C(=O)c3cc4c(cc3C2=O)CN(CC(=O)N2CCCC(Oc3ccc([C@@H]5c6ccc(O)cc6CC[C@@H]5c5ccccc5)cc3)C2)C4)C(=O)N1 (mixture of isomers) [Compound B13, 2-(2,6-dioxopiperidin-3-yl)-6-(2-(3-(4-((1R,2S)-6-hydroxy-2-phenyl-1,2,3,4-tetrahydronaphthalen-1-yl)phenoxy)piperidin-1-yl)-2-oxoethyl)-6,7-dihydropyrrolo[3,4-f]isoindole-1,3(2H,5H)-dione]",> 100
4,"O=C1CCC(N2C(=O)c3cc4c(cc3C2=O)CN(C(=O)CN2CCC3(CC2)CN(c2ccc([C@@H]5c6ccc(O)cc6CC[C@@H]5c5ccccc5)cc2)C3)C4)C(=O)N1 (mixture of isomers) [Compound B29, 2-(2,6-dioxopiperidin-3-yl)-6-(2-(2-(4-((1R,2S)-6-hydroxy-2-phenyl-1,2,3,4-tetrahydronaphthalen-1-yl)phenyl)-2,7-diazaspiro[3.5]nonan-7-yl)acetyl)-6,7-dihydropyrrolo[3,4-f]isoindole-1,3(2H,5H)-dione]",> 100
5,"O=C1CCC(N2C(=O)c3cc4c(cc3C2=O)CN(CC2(F)CCN(C(=O)C3CN(c5ccc([C@@H]6c7ccc(O)cc7CC[C@@H]6c6ccccc6)cc5)C3)CC2)C4)C(=O)N1 (stereo partly drawn) [Compound B262, 2-(2,6-dioxopiperidin-3-yl)-6-((4-fluoro-1-(1-(4-((1R,2S)-6-hydroxy-2-phenyl-1,2,3,4-tetrahydronaphthalen-1-yl)phenyl)azetidine-3-carbonyl)piperidin-4-yl)methyl)-6,7-dihydropyrrolo[3,4-f]isoindole-1,3(2H,5H)-dione]",> 100
6,"O=C1CCC(N2C(=O)c3cc4c(cc3C2=O)CN(CC(=O)N2CCC3(CC2)CCN(c2ccc([C@@H]5c6ccc(O)cc6CC[C@@H]5c5ccc(F)cc5)cn2)CC3)C4)C(=O)N1 (stereo partly drawn) [Compound B54, 2-(2,6-dioxopiperidin-3-yl)-6-(2-(9-(5-((1S,2S)-2-(4-fluorophenyl)-6-hydroxy-1,2,3,4-tetrahydronaphthalen-1-yl)pyridin-2-yl)-3,9-diazaspiro[5.5]undecan-3-yl)-2-oxoethyl)-6,7-dihydropyrrolo[3,4-f]isoindole-1,3(2H,5H)-dione]",> 100
7,"O=C1CCC(N2Cc3cc4c(cc3C2=O)CN(C(=O)CN2CCC3(CC2)CCN(c2ccc([C@@H]5c6ccc(O)cc6CC[C@@H]5c5ccccc5)cc2)CC3)C4)C(=O)N1 (stereo partly drawn) [Compound B105, 3-(6-(2-(9-(4-((1R,2S)-6-hydroxy-2-phenyl-1,2,3,4-tetrahydronaphthalen-1-yl)phenyl)-3,9-diazaspiro[5.5]undecan-3-yl)acetyl)-1-oxo-3,5,6,7-tetrahydropyrrolo[3,4-f]isoindol-2(1H)-yl)piperidine-2,6-dione]",< 10
8,"O=C1CCC(N2Cc3cc4c(cc3C2=O)CN(C[C@H]2CC[C@H](C(=O)N3CC(Oc5ccc([C@@H]6c7ccc(O)cc7CC[C@@H]6c6ccccc6)cc5)C3)CC2)C4)C(=O)N1 (stereo partly drawn) [Compound B294, 3-(6-(((1R,4r)-4-(3-(4-((1R,2S)-6-hydroxy-2-phenyl-1,2,3,4-tetrahydronaphthalen-1-yl)phenoxy)azetidine-1-carbonyl)cyclohexyl)methyl)-1-oxo-3,5,6,7-tetrahydropyrrolo[3,4-f]isoindol-2(1H)-yl)piperidine-2,6-dione]",< 10
9,"O=C1CCC(N2C(=O)c3cc4c(cc3C2=O)CN(C(=O)CN2CCC3(CC2)CCN(c2ccc([C@@H]5c6ccc(O)cc6CC[C@@H]5c5ccccc5)cc2)CC3)CC4)C(=O)N1 (mixture of isomers) [Compound B190, 2-(2,6-dioxopiperidin-3-yl)-6-(2-(9-(4-((1R,2S)-6-hydroxy-2-phenyl-1,2,3,4-tetrahydronaphthalen-1-yl)phenyl)-3,9-diazaspiro[5.5]undecan-3-yl)acetyl)-5,6,7,8-tetrahydro-1H-pyrrolo[3,4-g]isoquinoline-1,3(2H)-dione]",> 100

# Next, values leading:
row,DC50 [nM],SMILES
1,< 10,"O=C1CCC(N2C(=O)c3cc4c(cc3C2=O)CN(CC(=O)N2CC3(CCN(c5ccc([C@@H]6c7ccc(O)cc7CC[C@@H]6c6ccc(F)cc6)cc5)CC3)C2)C4)C(=O)N1 (mixture of isomers) [Compound B11, 2-(2,6-dioxopiperidin-3-yl)-6-(2-(7-(4-((1R,2S)-2-(4-fluorophenyl)-6-hydroxy-1,2,3,4-tetrahydronaphthalen-1-yl)phenyl)-2,7-diazaspiro[3.5]nonan-2-yl)-2-oxoethyl)-6,7-dihydropyrrolo[3,4-f]isoindole-1,3(2H,5H)-dione]"
2,> 100,"O=C1CCC(N2C(=O)c3cc4c(cc3C2=O)CN(C(=O)CN2CCC3(CCN(c5ccc([C@@H]6c7ccc(O)cc7CC[C@@H]6c6ccccc6)cc5)CC3)C2)C4)C(=O)N1 (mixture of isomers) [Compound B21, 2-(2,6-dioxopiperidin-3-yl)-6-(2-(8-(4-((1R,2S)-6-hydroxy-2-phenyl-1,2,3,4-tetrahydronaphthalen-1-yl)phenyl)-2,8-diazaspiro[4.5]decan-2-yl)acetyl)-6,7-dihydropyrrolo[3,4-f]isoindole-1,3(2H,5H)-dione]"
3,> 100,"O=C1CCC(N2C(=O)c3cc4c(cc3C2=O)CN(CC2CN(CC3CCN(c5ccc([C@@H]6c7ccc(O)cc7CC[C@@H]6c6ccc(F)cc6)cc5)CC3)C2)C4)C(=O)N1 (stereo partly drawn) [Compound B67, 2-(2,6-dioxopiperidin-3-yl)-6-((1-((1-(4-((1R,2S)-2-(4-fluorophenyl)-6-hydroxy-1,2,3,4-tetrahydronaphthalen-1-yl)phenyl)piperidin-4-yl)methyl)azetidin-3-yl)methyl)-6,7-dihydropyrrolo[3,4-f]isoindole-1,3(2H,5H)-dione]"
4,> 100,"O=C1CCC(N2C(=O)c3cc4c(cc3C2=O)CN([C@H]2CC[C@@H](NC3CCN(c5ccc([C@@H]6c7ccc(O)cc7CC[C@@H]6c6ccccc6)cc5)CC3)CC2)C4)C(=O)N1 (stereo partly drawn) [Compound B96, 2-(2,6-dioxopiperidin-3-yl)-6-((1S,4s)-4-((1-(4-((1R,2S)-6-hydroxy-2-phenyl-1,2,3,4-tetrahydronaphthalen-1-yl)phenyl)piperidin-4-yl)amino)cyclohexyl)-6,7-dihydropyrrolo[3,4-f]isoindole-1,3(2H,5H)-dione]"
5,> 100,"CN(C1CCC(CN2Cc3cc4c(cc3C2)C(=O)N(C2CCC(=O)NC2=O)C4)CC1)C1CCN(c2ccc([C@@H]3c4ccc(O)cc4CC[C@@H]3c3ccccc3)cc2)CC1 (stereo partly drawn) [Compound B202, 3-(6-((4-((1-(4-((1R,2S)-6-hydroxy-2-phenyl-1,2,3,4-tetrahydronaphthalen-1-yl)phenyl)piperidin-4-yl)(methyl)amino)cyclohexyl)methyl)-1-oxo-3,5,6,7-tetrahydropyrrolo[3,4-f]isoindol-2(1H)-yl)piperidine-2,6-dione]"
6,> 100,"O=C1CCC(N2C(=O)c3cc4c(cc3C2=O)CN(C2CCC(C(=O)NC3CN(c5ccc([C@@H]6c7ccc(O)cc7CC[C@@H]6c6ccccc6)cc5)C3)CC2)C4)C(=O)N1 (stereo partly drawn) [Compound B98, 4-(6-(2,6-dioxopiperidin-3-yl)-5,7-dioxo-3,5,6,7-tetrahydropyrrolo[3,4-f]isoindol-2(1H)-yl)-N-(1-(4-((1R,2S)-6-hydroxy-2-phenyl-1,2,3,4-tetrahydronaphthalen-1-yl)phenyl)azetidin-3-yl)cyclohexane-1-carboxamide]"
7,> 100,"O=C1CCC(N2C(=O)c3cc4c(cc3C2=O)CN(CC2CCN(C(=O)C3CN(c5ccc([C@@H]6c7ccc(O)cc7CC[C@@H]6c6ccccc6)cc5)C3)CC2)C4)C(=O)N1 (stereo partly drawn) [Compound B264, 2-(2,6-dioxopiperidin-3-yl)-6-((1-(1-(4-((1R,2S)-6-hydroxy-2-phenyl-1,2,3,4-tetrahydronaphthalen-1-yl)phenyl)azetidine-3-carbonyl)piperidin-4-yl)methyl)-6,7-dihydropyrrolo[3,4-f]isoindole-1,3(2H,5H)-dione]"
8,10 to 100,"O=C1CCC(N2Cc3c(ccc4c3OC[C@H]3CN(CC5CCN(c6ccc([C@@H]7c8ccc(O)cc8CC[C@@H]7c7ccccc7)cc6)CC5)CCN43)C2=O)C(=O)N1 (stereo partly drawn) [Compound B298, 3-((R)-7-((1-(4-((1R,2S)-6-hydroxy-2-phenyl-1,2,3,4-tetrahydronaphthalen-1-yl)phenyl)piperidin-4-yl)methyl)-1-oxo-1,3,5,5a,6,7,8,9-octahydro-2H-pyrazino[1′,2′:4,5][1,4]oxazino[2,3-e]isoindol-2-yl)piperidine-2,6-dione]"
9,< 10,"O=C1CCC(N2C(=O)c3cc4c(cc3C2=O)CN(C(=O)C2CCN(C3CCN(c5ccc([C@@H]6c7ccc(O)cc7CC[C@@H]6c6ccc(F)cc6)cc5)CC3)CC2)C4)C(=O)N1 (mixture of isomers) [Compound B6, 2-(2,6-dioxopiperidin-3-yl)-6-(1′-(4-((1R,2S)-2-(4-fluorophenyl)-6-hydroxy-1,2,3,4-tetrahydronaphthalen-1-yl)phenyl)-[1,4'-bipiperidine]-4-carbonyl)-6,7-dihydropyrrolo[3,4-f]isoindole-1,3(2H,5H)-dione]"
